“Also recorded” adds a separate entry of the source. Marks after values point to notes of the source that are not given here.
Experiments:
ovariectomy (OVX) rats [1] = experiment: Femur bone mineral density (DEXA), breaking force and mineral content in ovariectomized rats; type: in vivo, Sprague-Dawley rats; conditions: for BMD: femur
Method: Using dual energy X-ray absorptionmetry (DEXA; Prodigy Advance, Donga imaging, Korea), the bone mineral density (BMD) of the femur was measured. Immediately after BMD measurement, the femur was subjected to mechanical test at room temperature using a material testing machine (MZ500D; Maruto, Tokyo, Japan). For stabilization, the mid-diaphysis of the thigh was placed on two supports at an interval of 4 mm on a test device. A three-point bending test was performed in front and rear directions at the midpoint between the two supports. Breaking force was measured using software (CTR win, Ver. 1.05) to measure bone strength. […] Then, the thigh was placed at 800° C. for 16 hours, and the weight of the ash was measured. […] Calcium and phosphorus contents were measured using an atomic absorption spectrophotometer (PerkinElmer; A Analyst 100 Spectrophotometer, Boston, USA).

ovariectomy (OVX) rats [2] = experiment: Hematological analysis in ovariectomized rats; type: in vivo, Sprague-Dawley rats
Method: Blood samples were collected at 12 weeks post-surgery.
Hematological experiments were performed using T-540 Coulter Counter (Coulter Electronics Inc., Hialeah, USA) and ADVIA 120 Hematology System (Bayer Healthcare LLC, Tarrytown, USA). White blood cells (WBCs), differential leukocyte counts, hematocrit, red blood cells (RBCs), mean corpuscular volume (MCV), mean corpuscular hemoglobin (MCH), mean corpuscular hemoglobin concentration (MCHC), and platelet count were subjected to analysis, respectively.

ovariectomy (OVX) rats [3] = experiment: Blood markers  (17β-estradiol, osteocalcin, CTx) in ovariectomized rats; type: in vivo, Sprague-Dawley rats; conditions: for blood 17β-estradiol reduction by ovariectomy: OVX rats; for Estradiol: serum 17β-estradiol, 12 weeks after ovariectomy, mean ± SD, 5 rats
[4] = test system: human colo 205 rectal cancer cells; experiment: Rectal cancer animal experiment, Colo205 xenograft model; type: in vivo; conditions: for MTV (n) Day 28: median tumor volume; for Deaths NTR: non-treatment-related deaths; for % TGI: percent tumor growth inhibition compared to Group 1 (vehicle), Day 28, 0.83 mg/kg po; for Deaths TR: treatment-related deaths
Method: Using human colo 205 rectal cancer cells as xenograft model, clinical experiments were performed with adenocarcinoma nude mice for 28 days. In this regard, the experimental method and usage are shown in Table 8 (Protocol Design for the Colo205-e347 Study) and Table 9 (Final treatment regimen at completion of the study) below.

ovariectomy (OVX) rats [5] = experiment: Change in weight of organs in ovariectomized rats; type: in vivo, Sprague-Dawley rats
Method: 12 week old female SPF Sprague-Dawley rats (body weight: 250 g; n=15) were purchased from the Korean Laboratory Animals Center (Eumseong, South Korea). Breeding conditions were as follows: temperature, 23+3° C.; relative humidity, 55+10%; lighting time, 12 hours (08:00-20:00); ventilation frequency, 10-20 changes/h; illumination, 150-300 lux. The temperature and humidity were measured using a hygrometer in units of time, and there were no variables that could affect the experimental results. The animals were fed normal rodent feed and purified water.
The experimental animals were randomly divided into three groups. After adaptation, bilateral laparotomy (sham) or bilateral ovariectomy (OVX) was performed on the rats.
Changes in the body weight and feeding and water intake were measured at a regular interval.

ovariectomy (OVX) rats [6] = experiment: Blood markers  (17β-estradiol, osteocalcin, CTx) in ovariectomized rats; type: in vivo, Sprague-Dawley rats; conditions: for C-terminal telopeptide: serum CTx
Method: Osteocalcin levels were measured using a sandwich ELISA kit (Biomedical Technologies Inc., Stoughton, USA), while CTx levels were measured using a serum RatLaps ELISA kit (IDS Inc., Fountain Hills, USA).

ovariectomy (OVX) rats [7] = experiment: Blood biochemical analysis in ovariectomized rats; conditions: for bone growth marker ALP: OVX rats, serum
Method: Blood samples were collected at 12 weeks post-surgery. Animals were deprived of food for 16 hours and then anesthetized prior to blood sampling (Zoletile 50, Virbac, Korea). 0.5 mL of blood was collected from the abdominal artery and stored at 4° C. in a refrigerator.
A portion of the blood was used for hematological experiments, and the remaining blood was centrifuged at 3,000 rpm for 10 minutes to obtain serum. The serum was used for blood biochemical experiments and bone metabolism markers 17β-estradiol, osteocalcin and CTx analysis.
The parameters measured for blood biochemical analysis (Ciba-Corning 644 Na/K/Cl Analyzer, Ciba-Corning, Medfield, USA) were as follows: alanine aminotransferase (ALT), aspartate aminotransferase (AST), alkaline phosphatase (ALP), blood urea nitrogen (BUN), glucose, triglycerides (TG), total cholesterol (TC), high-density lipoproteins (HDL), low-density lipoproteins (LDL), total proteins (TP), albumin, calcium and phosphorus.

multiple myeloma (MM) = experiment: Multiple myeloma animal experiment; type: in vivo, 5TGM1-grafted NSG mice
[8] = femur ash, reduced by ovariectomy
[9] = DEXA, treatment for 12 weeks after ovariectomy, mean ± SD, 5 rats
[10] = blood at 12 weeks post-surgery, mean ± SD, 5 rats
[11] = OVX rats, treatment for 12 weeks after ovariectomy, mean ± SD, 5 rats
[12] = OVX rats, increased after ovariectomy
[13] = 12 weeks after ovariectomy, mean ± SD, 5 rats
[14] = serum, 12 weeks after ovariectomy, mean ± SD, 5 rats
[15] = serum at 12 weeks post-surgery, mean ± SD, 5 rats

Sigma Anti-bonding Molecule Calcium Carbonate [SAC, reference compound]
calcium (ovariectomy (OVX) rats [1]; [8]): not significantly different from the Sham group | BMD (ovariectomy (OVX) rats [1]; [9]): 0.228 ± 0.012 g/cm² | Basophils (ovariectomy (OVX) rats [2]; [10]): 0.02 ± 0.04 9% | Eosinophils (ovariectomy (OVX) rats [2]; [10]): 5.04 ± 3.88% | Hematocrit (ovariectomy (OVX) rats [2]; [10]): 43.94 ± 2.18% | Lymphocytes (ovariectomy (OVX) rats [2]; [10]): 70.36 ± 8.78% | Mean corpuscular hemoglobin (ovariectomy (OVX) rats [2]; [10]): 30.50 ± 0.75 pg | Mean corpuscular hemoglobin concentration (ovariectomy (OVX) rats [2]; [10]): 57.14 ± 0.76 g/dL | Mean corpuscular volume (ovariectomy (OVX) rats [2]; [10]): 53.44 ± 1.24 fL | Monocytes (ovariectomy (OVX) rats [2]; [10]): 2.50 ± 1.44% | Neutrophils (ovariectomy (OVX) rats [2]; [10]): 21.21 ± 6.19% | Platelet (ovariectomy (OVX) rats [2]; [10]): 1297.0 ± 91.27 10^3/mm^3 | Red blood cell (ovariectomy (OVX) rats [2]; [10]): 8.23 ± 0.55 10^6/µL | White blood cell (ovariectomy (OVX) rats [2]; [10]): 4.84 ± 1.17 10^3/μl | blood 17β-estradiol reduction by ovariectomy (ovariectomy (OVX) rats [3]): quite recovered | Estradiol (ovariectomy (OVX) rats [3]): 4.217 ± 0.247^a pg/ml | Mean BW Nadir ([4]; lowest group mean body weight as % change from Day 1, — indicates no decrease in mean body weight was observed): −0.4% Day 2 | MTV (n) Day 28 ([4]; 0.83 mg/kg po): 896 (9) mm^3 | Deaths NTR ([4]; 0.83 mg/kg po): 1 | Regressions CR ([4]; number of complete regressions, 0.83 mg/kg po): 0 | Regressions PR ([4]; number of partial regressions, 0.83 mg/kg po): 0 | % TGI [4]: 4% | Deaths TR ([4]; 0.83 mg/kg po): 0 | Regressions TFS ([4]; tumor free survivors at end of study, 0.83 mg/kg po): 0 | Adrenal gland Left weight (ovariectomy (OVX) rats [5]; [11]): 0.0094 ± 0.0014 g | Adrenal gland Right weight (ovariectomy (OVX) rats [5]; [11]): 0.0094 ± 0.0014 g | Body weight (ovariectomy (OVX) rats [5]; [11]): 371.36 ± 9.97 g | Brain weight (ovariectomy (OVX) rats [5]; [11]): 0.5526 ± 0.02 | Femur Left weight (ovariectomy (OVX) rats [5]; [11]): 0.2935 ± 0.02 g | Femur Right weight (ovariectomy (OVX) rats [5]; [11]): 0.2902 ± 0.02 g | Kidney: Left weight (ovariectomy (OVX) rats [5]; [11]): 0.2687 ± 0.01 g | Kidney: Right weight (ovariectomy (OVX) rats [5]; [11]): 0.2626 ± 0.02 g | Liver weight (ovariectomy (OVX) rats [5]; [11]): 2.1820 ± 0.15 g | Pituitary weight (ovariectomy (OVX) rats [5]; [11]): 4.2 ± 1 mg | Spleen weight (ovariectomy (OVX) rats [5]; [11]): 0.1856 ± 0.02 g | Uterus weight (ovariectomy (OVX) rats [5]; [11]): 0.0444 ± 0.02 g | Vagina weight (ovariectomy (OVX) rats [5]; [11]): 0.0575 ± 0.02 g | C-terminal telopeptide / CTx (ovariectomy (OVX) rats [6]; [12]): quite reduced | osteocalcin (ovariectomy (OVX) rats [6]; [12]): considerably reduced | C-terminal telopeptide (ovariectomy (OVX) rats [6]; [13]): 4.360 ± 0.495^a ng/ml | osteocalcin (ovariectomy (OVX) rats [6]; [14]): 3.558 ± 0.154^ac ng/mL | bone growth marker ALP (ovariectomy (OVX) rats [7]): recovered to a normal level | ALP (ovariectomy (OVX) rats [7]; [15]): 108.2 ± 20.7 IU/l | Albumin (ovariectomy (OVX) rats [7]; [15]): 2.7 ± 0.1 g/dL | BUN (ovariectomy (OVX) rats [7]; [15]): 9.2 ± 2.4 mg/dL | GOT (ovariectomy (OVX) rats [7]; [15]): 148.0 ± 30.4 IU/l | GPT (ovariectomy (OVX) rats [7]; [15]): 22.4 ± 4.0 IU/l | Glucose (ovariectomy (OVX) rats [7]; [15]): 112.4 ± 7.7 mg/dL | HDL (ovariectomy (OVX) rats [7]; [15]): 23.8 ± 5.2 mg/dL | LDL-C (ovariectomy (OVX) rats [7]; [15]): 8.0 ± 5.2 mg/dL | Phosphorus (ovariectomy (OVX) rats [7]; [15]): 4.1 ± 0.6 mg/dL | TC (ovariectomy (OVX) rats [7]; [15]): 73.0 ± 17.3 mg/dL | TG (ovariectomy (OVX) rats [7]; [15]): 20.6 ± 7.7 mg/dL | TP (ovariectomy (OVX) rats [7]; [15]): 4.7 ± 0.2 | calcium (ovariectomy (OVX) rats [7]; [15]): 6.7 ± 0.4 mg/dL

Sigma Anti-bonding Molecule Calcium gluconate [SAC gluconate]
extension of survival versus control (multiple myeloma (MM); 80 mg/kg orally 3 times per day, 83 versus 58 days): 43% | survival after tumor inoculation (multiple myeloma (MM); 80 mg/kg orally 3 times per day, control group survived 58 days): 83 days | tumor growth (FIG. 8) (multiple myeloma (MM); text result versus control group): stopped or at least became dull | Phosphorus (ovariectomy (OVX) rats [1]; [8]): completely recovered | calcium (ovariectomy (OVX) rats [1]; [8]): completely recovered | BMD (ovariectomy (OVX) rats [1]; [9]): 0.238 ± 0.011 g/cm² | BMD (ovariectomy (OVX) rats [1]; reduced by ovariectomy): completely recovered; also recorded: improved BMD | femoral breaking force (ovariectomy (OVX) rats [1]; three-point bending test, reduced by ovariectomy): completely recovered | Eosinophils (ovariectomy (OVX) rats [2]; after ovariectomy): significantly increased | Basophils (ovariectomy (OVX) rats [2]; [10]): 0.03 ± 0.04 9% | Eosinophils (ovariectomy (OVX) rats [2]; [10]): 5.06 ± 2.88% | Hematocrit (ovariectomy (OVX) rats [2]; [10]): 44.94 ± 1.18% | Lymphocytes (ovariectomy (OVX) rats [2]; [10]): 73.36 ± 3.78% | Mean corpuscular hemoglobin (ovariectomy (OVX) rats [2]; [10]): 32.50 ± 1.75 pg | Mean corpuscular hemoglobin concentration (ovariectomy (OVX) rats [2]; [10]): 57.54 ± 1.76 g/dL | Mean corpuscular volume (ovariectomy (OVX) rats [2]; [10]): 54.44 ± 1.24 fL | Monocytes (ovariectomy (OVX) rats [2]; [10]): 2.60 ± 1.04% | Neutrophils (ovariectomy (OVX) rats [2]; [10]): 22.21 ± 5.19% | Platelet (ovariectomy (OVX) rats [2]; [10]): 1397.0 ± 81.27 10^3/mm^3 | Red blood cell (ovariectomy (OVX) rats [2]; [10]): 8.33 ± 0.45 10^6/µL | White blood cell (ovariectomy (OVX) rats [2]; [10]): 4.94 ± 2.17 10^3/μl | blood 17β-estradiol reduction by ovariectomy (ovariectomy (OVX) rats [3]): quite recovered | Estradiol (ovariectomy (OVX) rats [3]): 4.417 ± 0.347^a pg/ml | tumor growth (FIG. 4) ([4]; Colo205 xenograft mice): tumor growth was slowed down after 12 days | tumor growth and size of tumor (FIG. 5) ([4]; Colo205 xenograft mice): tumor growth became dull and a size of tumor was reduced after 2 or 3 weeks from the dose | MTV (n) Day 28 ([4]; 0.83 mg/kg po): 864 (10) mm^3 | Deaths NTR ([4]; 0.83 mg/kg po): 0 | % TGI [4]: 8% | Deaths TR ([4]; 0.83 mg/kg po): 0 | weights of the organs (ovariectomy (OVX) rats [5]; OVX rats): does not significantly affect the weights of the organs | Adrenal gland Left weight (ovariectomy (OVX) rats [5]; [11]): 0.0098 ± 0.0014 g | Adrenal gland Right weight (ovariectomy (OVX) rats [5]; [11]): 0.0098 ± 0.0014 g | Brain weight (ovariectomy (OVX) rats [5]; [11]): 0.6126 ± 0.02 | Femur Left weight (ovariectomy (OVX) rats [5]; [11]): 0.3335 ± 0.02 g | Femur Right weight (ovariectomy (OVX) rats [5]; [11]): 0.3302 ± 0.02 g | Kidney: Left weight (ovariectomy (OVX) rats [5]; [11]): 0.2977 ± 0.01 g | Kidney: Right weight (ovariectomy (OVX) rats [5]; [11]): 0.2926 ± 0.02 g | Liver weight (ovariectomy (OVX) rats [5]; [11]): 2.5220 ± 0.15 g | Pituitary weight (ovariectomy (OVX) rats [5]; [11]): 4.3 ± 1 mg | Spleen weight (ovariectomy (OVX) rats [5]; [11]): 0.2056 ± 0.02 g | Uterus weight (ovariectomy (OVX) rats [5]; [11]): 0.0524 ± 0.02 g | Vagina weight (ovariectomy (OVX) rats [5]; [11]): 0.0665 ± 0.02 g | weights of the reproductive organs (uterus and vagina) (ovariectomy (OVX) rats [5]; reduced by ovariectomy): not restored | C-terminal telopeptide / CTx (ovariectomy (OVX) rats [6]; [12]): also reduced; also recorded: recovered to normal levels | osteocalcin (ovariectomy (OVX) rats [6]; [12]): recovered to normal levels | C-terminal telopeptide (ovariectomy (OVX) rats [6]; [13]): 4.340 ± 0.395^a ng/ml | osteocalcin (ovariectomy (OVX) rats [6]; [14]): 3.458 ± 0.254^ac ng/mL | bone growth marker ALP (ovariectomy (OVX) rats [7]): recovered to a normal level | ALP (ovariectomy (OVX) rats [7]; [15]): 108.5 ± 21.7 IU/l | Albumin (ovariectomy (OVX) rats [7]; [15]): 2.8 ± 0.1 g/dL | BUN (ovariectomy (OVX) rats [7]; [15]): 9.5 ± 2.3 mg/dL | GOT (ovariectomy (OVX) rats [7]; [15]): 158.0 ± 32.4 IU/l | GPT (ovariectomy (OVX) rats [7]; [15]): 20.4 ± 4.5 IU/l | Glucose (ovariectomy (OVX) rats [7]; [15]): 110.4 ± 8.7 mg/dL | HDL (ovariectomy (OVX) rats [7]; [15]): 22.8 ± 6.2 mg/dL | LDL-C (ovariectomy (OVX) rats [7]; [15]): 8.1 ± 4.2 mg/dL | Phosphorus (ovariectomy (OVX) rats [7]; [15]): 4.2 ± 0.3 mg/dL | calcium (ovariectomy (OVX) rats [7]; [15]): 6.8 ± 0.3 mg/dL
